# In article PMC10033409, “Autoregulation of GPCR signalling through the third intracellular loop” (Nature, 2023):
# Where “and” joins values, the source holds several entries; their conditions need not be identical. Equal values may be shown once.
# Columns and labels:
# [1] = system: β2AR; assay: Radiolabelled antagonist-binding assay (saturation); set-up: species or system human; Bmax / 125I-Cyanopindolol saturation binding signal: unit not given here; conditions: for Bmax / fmol 125I-Cyanopindolol/mg sample: replicates 1-3 and Average; for fmol 125I-Cyanopindolol/mg sample, Fit: fitted curve;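 as to all read-outs here: membranes expressing β2AR constructs, equilibrated with radioligand on ice, bound ligand retained on GF/C filters, Bmax normalized to membrane protein from a DC assay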
# [2] = system: Untransfected; assay: Radiolabelled antagonist-binding assay (saturation), untransfected control sample; conditions: fitted curve
# Source text: Supplement 41586_2023_5789_MOESM3_ESM.xlsx, sheet "Extended Data Figure 3J"
# [3] = Sensor + Gs-peptide, 125I-Cyanopindolol 0.000239059 nM
# [4] = Sensor + Gs-peptide, 125I-Cyanopindolol 0.0167722 nM
# [5] = Sensor + Gs-peptide, 125I-Cyanopindolol 0.0344858 nM
# [6] = Sensor + Gs-peptide, 125I-Cyanopindolol 0.073983 nM
# [7] = Sensor + Gs-peptide, 125I-Cyanopindolol 0.202201 nM
# [8] = Sensor + Gs-peptide, 125I-Cyanopindolol 0.415365 nM
# [9] = Sensor + Gs-peptide, 125I-Cyanopindolol 0.83063 nM
# [10] = Sensor + Gs-peptide, 125I-Cyanopindolol 1.64238 nM
substance,measurement,setting,value
[^125I](±)-cyanopindolol,Bmax,[1]; Sensor + Gs-pep,1992.85 and 2334.87 and 1180.14
same,"fmol 125I-Cyanopindolol/mg sample, Fit",[1]; [3],0.00E+00 fmol/mg sample
same,fmol 125I-Cyanopindolol/mg sample,[1]; [3],-1.828 fmol/mg sample and 0.6291 fmol/mg sample and 0.5155 fmol/mg sample
same,"fmol 125I-Cyanopindolol/mg sample, Fit",[1]; [4],3.85E+02 fmol/mg sample
same,fmol 125I-Cyanopindolol/mg sample,[1]; [4],331.932 fmol/mg sample and 483.578 fmol/mg sample and 237.189 fmol/mg sample
same,"fmol 125I-Cyanopindolol/mg sample, Fit",[1]; [5],6.37E+02 fmol/mg sample
same,fmol 125I-Cyanopindolol/mg sample,[1]; [5],633.08 fmol/mg sample and 885.671 fmol/mg sample and 427.455 fmol/mg sample
same,"fmol 125I-Cyanopindolol/mg sample, Fit",[1]; [6],9.68E+02 fmol/mg sample
same,fmol 125I-Cyanopindolol/mg sample,[1]; [6],973.823 fmol/mg sample and 1370.71 fmol/mg sample and 652.022 fmol/mg sample
same,"fmol 125I-Cyanopindolol/mg sample, Fit",[1]; [7],1.38E+03 fmol/mg sample
same,fmol 125I-Cyanopindolol/mg sample,[1]; [7],1415.68 fmol/mg sample and 1842.87 fmol/mg sample and 880.16 fmol/mg sample
same,"fmol 125I-Cyanopindolol/mg sample, Fit",[1]; [8],1.58E+03 fmol/mg sample
same,fmol 125I-Cyanopindolol/mg sample,[1]; [8],1527.87 fmol/mg sample and 2049.46 fmol/mg sample and 1008.05 fmol/mg sample
same,"fmol 125I-Cyanopindolol/mg sample, Fit",[1]; [9],1.71E+03 fmol/mg sample
same,fmol 125I-Cyanopindolol/mg sample,[1]; [9],1817.18 fmol/mg sample and 2238.94 fmol/mg sample and 1107.54 fmol/mg sample
same,"fmol 125I-Cyanopindolol/mg sample, Fit",[1]; [10],1.78E+03 fmol/mg sample
same,fmol 125I-Cyanopindolol/mg sample,[1]; [10],1925.74 fmol/mg sample and 2301.14 fmol/mg sample and 1169.54 fmol/mg sample
same,fmol 125I-Cyanopindolol/mg sample,"[1]; Sensor + Gs-peptide, 125I-Cyanopindolol 1.64238 nM, mean",1798.81 fmol/mg sample
same,"fmol 125I-Cyanopindolol/mg sample, Fit","[1]; Sensor, 125I-Cyanopindolol 0.0198458 nM (Average)",3.34E+02 fmol/mg sample
same,"fmol 125I-Cyanopindolol/mg sample, Fit","[1]; Sensor, 125I-Cyanopindolol 0.0420593 nM (Average)",5.96E+02 fmol/mg sample
same,"fmol 125I-Cyanopindolol/mg sample, Fit","[1]; Sensor, 125I-Cyanopindolol 0.234223 nM (Average)",1.38E+03 fmol/mg sample
same,"fmol 125I-Cyanopindolol/mg sample, Fit","[1]; Sensor, 125I-Cyanopindolol 0.468204 nM (Average)",1.60E+03 fmol/mg sample
same,"fmol 125I-Cyanopindolol/mg sample, Fit","[1]; Sensor, 125I-Cyanopindolol 0.871756 nM (Average)",1.73E+03 fmol/mg sample
same,"fmol 125I-Cyanopindolol/mg sample, Fit","[1]; Sensor, 125I-Cyanopindolol 1.70257 nM (Average)",1.81E+03 fmol/mg sample
same,Bmax,[1]; Sensor,1914.14 and 2557.54 and 1116.04
same,125I-Cyanopindolol saturation binding signal,"[1]; ∆ICL3 + 30 µM Q, 0.0283 nM, Average",236.51
same,125I-Cyanopindolol saturation binding signal,"[1]; ∆ICL3 + 30 µM Q, 0.0283 nM, Fit",285.20
same,125I-Cyanopindolol saturation binding signal,"[1]; ∆ICL3 + 30 µM Q, 0.0283 nM, experiments 1-3",222.98 and 255.55 and 231.00
same,125I-Cyanopindolol saturation binding signal,"[1]; ∆ICL3 + 30 µM Q, 0.0474 nM, Average",366.56
same,125I-Cyanopindolol saturation binding signal,"[1]; ∆ICL3 + 30 µM Q, 0.0474 nM, Fit",463.24
same,125I-Cyanopindolol saturation binding signal,"[1]; ∆ICL3 + 30 µM Q, 0.0474 nM, experiments 1-3",296.41 and 421.89 and 381.36
same,125I-Cyanopindolol saturation binding signal,"[1]; ∆ICL3 + 30 µM Q, 0.10 nM, Average",910.97
same,125I-Cyanopindolol saturation binding signal,"[1]; ∆ICL3 + 30 µM Q, 0.10 nM, Fit",816.24
same,125I-Cyanopindolol saturation binding signal,"[1]; ∆ICL3 + 30 µM Q, 0.10 nM, experiments 1-3",840.60 and 993.89 and 898.42
same,125I-Cyanopindolol saturation binding signal,"[1]; ∆ICL3 + 30 µM Q, 1.85 nM, Average",1906.34
same,125I-Cyanopindolol saturation binding signal,"[1]; ∆ICL3 + 30 µM Q, 1.85 nM, Fit",1809.97
same,125I-Cyanopindolol saturation binding signal,"[1]; ∆ICL3 + 30 µM Q, 1.85 nM, experiments 1-3",1586.99 and 2170.25 and 1961.77
same,125I-Cyanopindolol saturation binding signal,"[1]; ∆ICL3, 0.0283 nM, Average",126.54
same,125I-Cyanopindolol saturation binding signal,"[1]; ∆ICL3, 0.0283 nM, Fit",399.52
same,125I-Cyanopindolol saturation binding signal,"[1]; ∆ICL3, 0.0283 nM, experiments 1-3",94.88 and 85.74
same,125I-Cyanopindolol saturation binding signal,"[1]; ∆ICL3, 0.0474 nM, Average",687.11
same,125I-Cyanopindolol saturation binding signal,"[1]; ∆ICL3, 0.0474 nM, Fit",612.62
same,125I-Cyanopindolol saturation binding signal,"[1]; ∆ICL3, 0.10 nM, Average",1201.35
same,125I-Cyanopindolol saturation binding signal,"[1]; ∆ICL3, 0.10 nM, Fit",1024.98
same,125I-Cyanopindolol saturation binding signal,"[1]; ∆ICL3, 1.85 nM, Average",2504.14
same,125I-Cyanopindolol saturation binding signal,"[1]; ∆ICL3, 1.85 nM, Fit",2413.51
same,125I-Cyanopindolol saturation binding signal,"[1]; ∆ICL3, 1.85 nM, experiments 1-3",2561.55 and 2855.56 and 2095.33
same,"fmol 125I-Cyanopindolol/mg sample, Fit",[2]; 125I-Cyanopindolol 0.0198458 nM (Average),7.834e-5 fmol/mg sample
same,"fmol 125I-Cyanopindolol/mg sample, Fit",[2]; 125I-Cyanopindolol 0.0420593 nM (Average),0.0001875 fmol/mg sample
same,"fmol 125I-Cyanopindolol/mg sample, Fit",[2]; 125I-Cyanopindolol 0.234223 nM (Average),0.05859 fmol/mg sample
same,"fmol 125I-Cyanopindolol/mg sample, Fit",[2]; 125I-Cyanopindolol 0.468204 nM (Average),1.044 fmol/mg sample
same,"fmol 125I-Cyanopindolol/mg sample, Fit",[2]; 125I-Cyanopindolol 0.871756 nM (Average),13.7262 fmol/mg sample
same,"fmol 125I-Cyanopindolol/mg sample, Fit",[2]; 125I-Cyanopindolol 1.70257 nM (Average),172.555 fmol/mg sample
